Data published in ChEMBL document CHEMBL5046254, “Mycobactin Analogues with Excellent Pharmacokinetic Profile Demonstrate Potent Antitubercular Specific Activity and Exceptional Efflux Pump Inhibition” (J Med Chem, 2022).
Converted amounts (≈) assume the structure as drawn.

Key:
[1] = test system: Mycolicibacterium smegmatis; experiment: Antitubercular activity against Mycobacterium smegmatis mc2155 ATCC 700084 cultured in GAST media incubated for 24 hrs by resazurin microtiter assay; type: functional
[2] = test system: Mycolicibacterium smegmatis; experiment: Antitubercular activity against Mycobacterium smegmatis mc2155 ATCC 700084 cultured in GAST-Fe media incubated for 24 hrs by resazurin microtiter assay; type: functional
[3] = test system: Mycobacterium tuberculosis; experiment: microbe, parasite or virus in culture; settings: H37Rv ATCC 27294, 192 h
[4] = test system: Mycobacterium tuberculosis; experiment: microbe, parasite or virus in culture; settings: H37Rv ATCC 27294, 192 h; remark: listed apart in the source

Structure (SMILES)	MIC90 [1] [µg/mL]	MIC90 [2] [µg/mL]	MIC90 [3] [µg/mL]	MIC90 [4] [µg/mL]
CC(=O)N1N=C(c2ccccc2O)CC1c1cccc(F)c1 (stereo not drawn)	128 (≈ 429 µM)	128 (≈ 429 µM)	64 (≈ 215 µM)	256 (≈ 858 µM)
Oc1ccccc1C1=NNC(c2ccc(F)cc2)C1 (stereo not drawn)	8 (≈ 31.2 µM)	64 (≈ 250 µM)	16 (≈ 62.4 µM)	128 (≈ 499 µM)
NC(=S)N1N=C(c2ccccc2O)CC1c1ccccc1O (stereo not drawn)	64 (≈ 204 µM)	256 (≈ 817 µM)	256 (≈ 817 µM)	256 (≈ 817 µM)
NC(=S)N1N=C(c2ccccc2O)CC1c1ccccc1Cl (stereo not drawn)	256 (≈ 771 µM)	256 (≈ 771 µM)	8 (≈ 24.1 µM)	16 (≈ 48.2 µM)
Cc1ccc(C2CC(c3ccccc3O)=NN2C(N)=S)cc1 (stereo not drawn)	128 (≈ 411 µM)	> 256	8 (≈ 25.7 µM)	8 (≈ 25.7 µM)
Oc1cccc(C2CC(c3ccccc3O)=NN2)c1 (stereo not drawn)	64 (≈ 252 µM)	64 (≈ 252 µM)	64 (≈ 252 µM)	> 256
NNC(=O)c1ccncc1 [ISONIAZID]	2 (≈ 14.6 µM)	2 (≈ 14.6 µM)	0.03 (≈ 0.219 µM)	0.005 (≈ 0.0365 µM)
COc1ccc(C2CC(c3ccccc3O)=NN2C(C)=O)cc1O (stereo not drawn)	> 256	> 256	> 256	> 256
CC(=O)N1N=C(c2ccccc2O)CC1c1ccccc1Cl (stereo not drawn)	> 256	256 (≈ 813 µM)	> 256	> 256
CC(=O)N1N=C(c2ccccc2O)CC1c1ccc(Br)cc1 (stereo not drawn)	> 256	> 256	> 256	> 256
CC(=O)N1N=C(c2ccccc2O)CC1c1ccc(Cl)cc1 (stereo not drawn)	> 256	256 (≈ 813 µM)	> 256	> 256
COc1ccc(C2CC(c3ccccc3O)=NN2C(C)=O)cc1 (stereo not drawn)	> 256	> 256	> 256	> 256
COc1ccc(C2CC(c3ccccc3O)=NN2)cc1 (stereo not drawn)	64 (≈ 239 µM)	128 (≈ 477 µM)	32 (≈ 119 µM)	128 (≈ 477 µM)
COc1ccccc1C1CC(c2ccccc2O)=NN1C(C)=O (stereo not drawn)	> 256	> 256	> 256	> 256
Oc1ccccc1C1=NNC(c2ccccc2Cl)C1 (stereo not drawn)	8 (≈ 29.3 µM)	64 (≈ 235 µM)	16 (≈ 58.7 µM)	32 (≈ 117 µM)
CC(=O)N1N=C(c2ccccc2O)CC1c1cccc(Cl)c1 (stereo not drawn)	128 (≈ 407 µM)	128 (≈ 407 µM)	256 (≈ 813 µM)	256 (≈ 813 µM)
CC(=O)N1N=C(c2ccccc2O)CC1c1ccccc1 (stereo not drawn)	> 256	> 256	> 256	> 256
COc1ccccc1C1CC(c2ccccc2O)=NN1 (stereo not drawn)	64 (≈ 239 µM)	128 (≈ 477 µM)	32 (≈ 119 µM)	256 (≈ 954 µM)
CC(=O)N1N=C(c2ccccc2O)CC1c1ccccc1Br (stereo not drawn)	> 256	> 256	> 256	> 256
Cc1ccccc1C1CC(c2ccccc2O)=NN1C(N)=S (stereo not drawn)	128 (≈ 411 µM)	> 256	16 (≈ 51.4 µM)	16 (≈ 51.4 µM)
Oc1ccccc1C1=NNC(c2cccc(F)c2)C1 (stereo not drawn)	16 (≈ 62.4 µM)	64 (≈ 250 µM)	64 (≈ 250 µM)	256 (≈ 999 µM)
CC(=O)N1N=C(c2ccccc2O)CC1c1cccc(Br)c1 (stereo not drawn)	> 256	256 (≈ 713 µM)	> 256	> 256
COc1cccc(C2CC(c3ccccc3O)=NN2C(N)=S)c1 (stereo not drawn)	> 256	256 (≈ 782 µM)	32 (≈ 97.7 µM)	64 (≈ 195 µM)
NC(=S)N1N=C(c2ccccc2O)CC1c1ccc(Cl)cc1 (stereo not drawn)	128 (≈ 386 µM)	256 (≈ 771 µM)	4 (≈ 12.1 µM)	8 (≈ 24.1 µM)

Structure (SMILES)	MIC90 [1] [µg/mL]	MIC90 [2] [µg/mL]	MIC90 [3] [µg/mL]	MIC90 [4] [µg/mL]
CC(=O)N1N=C(c2ccccc2O)CC1c1cccc(O)c1 (stereo not drawn)	> 256	> 256	> 256	> 256
Cc1ccccc1C1CC(c2ccccc2O)=NN1 (stereo not drawn)	16 (≈ 63.4 µM)	128 (≈ 507 µM)	16 (≈ 63.4 µM)	64 (≈ 254 µM)
COc1ccc(C2CC(c3ccccc3O)=NN2C(N)=S)cc1O (stereo not drawn)	128 (≈ 373 µM)	128 (≈ 373 µM)	8 (≈ 23.3 µM)	16 (≈ 46.6 µM)
NC(=S)N1N=C(c2ccccc2O)CC1c1ccccc1F (stereo not drawn)	128 (≈ 406 µM)	128 (≈ 406 µM)	16 (≈ 50.7 µM)	32 (≈ 101 µM)
Oc1ccc(C2CC(c3ccccc3O)=NN2)cc1 (stereo not drawn)	32 (≈ 126 µM)	64 (≈ 252 µM)	128 (≈ 503 µM)	> 256
CO[C@H]1/C=C/O[C@@]2(C)Oc3c(C)c(O)c4c(O)c(c(/C=N/N5CCN(C)CC5)c(O)c4c3C2=O)NC(=O)/C(C)=C\C=C\[C@H](C)[C@H](O)[C@@H](C)[C@@H](O)[C@@H](C)[C@H](OC(C)=O)[C@@H]1C [RIFAMPIN]	8 (≈ 9.72 µM)	8 (≈ 9.72 µM)	0.03 (≈ 0.0365 µM)	0.005 (≈ 0.00608 µM)
CC(=O)N1N=C(c2ccccc2O)CC1c1ccc(C)cc1 (stereo not drawn)	> 256	256 (≈ 870 µM)	> 256	> 256
NC(=S)N1N=C(c2ccccc2O)CC1c1cccc(Cl)c1 (stereo not drawn)	256 (≈ 771 µM)	256 (≈ 771 µM)	16 (≈ 48.2 µM)	32 (≈ 96.4 µM)
Cc1ccc(C2CC(c3ccccc3O)=NN2)cc1 (stereo not drawn)	16 (≈ 63.4 µM)	64 (≈ 254 µM)	8 (≈ 31.7 µM)	32 (≈ 127 µM)
NC(=S)N1N=C(c2ccccc2O)CC1c1cccc(O)c1 (stereo not drawn)	128 (≈ 408 µM)	256 (≈ 817 µM)	16 (≈ 51.1 µM)	128 (≈ 408 µM)
Oc1ccccc1C1=NNC(c2ccccc2F)C1 (stereo not drawn)	8 (≈ 31.2 µM)	64 (≈ 250 µM)	16 (≈ 62.4 µM)	64 (≈ 250 µM)
Oc1ccccc1C1=NNC(c2ccccc2O)C1 (stereo not drawn)	64 (≈ 252 µM)	64 (≈ 252 µM)	64 (≈ 252 µM)	> 256
Oc1ccccc1C1=NNC(c2ccccc2Br)C1 (stereo not drawn)	8 (≈ 25.2 µM)	64 (≈ 202 µM)	16 (≈ 50.4 µM)	32 (≈ 101 µM)
CC(=O)N1N=C(c2ccccc2O)CC1c1ccccc1C (stereo not drawn)	> 256	256 (≈ 870 µM)	> 256	> 256
COc1ccccc1C1CC(c2ccccc2O)=NN1C(N)=S (stereo not drawn)	256 (≈ 782 µM)	256 (≈ 782 µM)	16 (≈ 48.9 µM)	16 (≈ 48.9 µM)
CC(=O)N1N=C(c2ccccc2O)CC1c1ccccc1F (stereo not drawn)	256 (≈ 858 µM)	256 (≈ 858 µM)	> 256	> 256
CC(=O)N1N=C(c2ccccc2O)CC1c1ccc(O)cc1 (stereo not drawn)	> 256	> 256	> 256	> 256
Oc1ccccc1C1=NNC(c2ccccc2)C1 (stereo not drawn)	64 (≈ 269 µM)	128 (≈ 537 µM)	32 (≈ 134 µM)	128 (≈ 537 µM)
COc1cccc(C2CC(c3ccccc3O)=NN2C(C)=O)c1 (stereo not drawn)	> 256	256 (≈ 825 µM)	> 256	> 256
CC(=O)N1N=C(c2ccccc2O)CC1c1ccccc1O (stereo not drawn)	> 256	> 256	> 256	256 (≈ 864 µM)
CC(=O)N1N=C(c2ccccc2O)CC1c1ccc(F)cc1 (stereo not drawn)	128 (≈ 429 µM)	128 (≈ 429 µM)	128 (≈ 429 µM)	256 (≈ 858 µM)
COc1ccc(C2CC(c3ccccc3O)=NN2)cc1O (stereo not drawn)	> 256	> 256	128 (≈ 450 µM)	256 (≈ 900 µM)
COc1ccc(C2CC(c3ccccc3O)=NN2C(N)=S)cc1 (stereo not drawn)	128 (≈ 391 µM)	> 256	64 (≈ 195 µM)	> 256
